≈ marks a conversion by molar mass, not a printed value. Like-named read-outs stand apart in the source and are kept apart here.
Assays:
[1] = tested on: MRSA NRS119; test: MIC and MBC; format: cell-based, Staphylococcus aureus; conditions: Staphylococcus aureus, MRSA NRS119
Method: (§1) Bacteria were cultured in cation-adjusted Mueller Hinton Broth (for strains in Tables 1 and 4) or Brain Heart Infusion broth (for Enterococcus faecium) or Tryptic Soy Broth (all other bacteria) in a 96-well plate at 37° C. for at least 20 hours. The MIC was classified as the lowest concentration where no visual growth of bacteria was observed. The minimum bactericidal concentration (MBC) was tested by spotting 4 μL from wells with no growth onto Tryptic Soy Agar (TSA) plates. Plates were incubated at 37° C. for at least 18 hours before recording the MBC.

[2] = tested on: VRE (E. faecalis) ATCC 51575; test: MIC, broth microdilution; format: cell-based; conditions: VRE (E. faecalis) ATCC 51575; read-out: MIC
How it was run: (§2)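 Broth microdilution, 37 °C for ≥20 h, in cation-adjusted Mueller Hinton, Brain Heart Infusion (E. faecium) or Tryptic Soy Broth depending on strain; MIC is lowest concentration without visible growth. MBC by spotting clear wells onto Tryptic Soy Agar, read after ≥18 h at 37 °C.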

[3] = tested on: MRSA ATCC 33592; test: MIC, broth microdilution; format: cell-based; conditions: Staphylococcus aureus; MRSA ATCC 33592; read-out: MIC
How it was run: as §2

[4] = tested on: S. aureus ATCC 25923; test: MIC, broth microdilution; format: cell-based; conditions: Staphylococcus aureus, ATCC25923; S. aureus ATCC 25923; read-out: MIC
How it was run: as §2

[5] = tested on: L. monocytogenes ATCC 19115; test: MIC, broth microdilution; format: cell-based; conditions: Listeria monocytogenes, ATCC19115; L. monocytogenes ATCC 19115; read-out: MIC
How it was run: as §2

[6] = tested on: E. faecalis ATCC 29212; test: MIC, broth microdilution; format: cell-based; conditions: Enterococcus faecalis, ATCC29212; E. faecalis ATCC 29212; read-out: MIC
How it was run: as §2

[7] = tested on: MRSA USA400 (NRS123); format: cell-based, Staphylococcus aureus
Text: Resistance was classified as a greater than four-fold increase in the initial MIC, as reported elsewhere^30 (Farrell D J, Robbins M, Rhys-Williams W, Love W G. Investigation of the potential for mutational resistance to XF-73, retapamulin, mupirocin, fusidic acid, daptomycin, and vancomycin in methicillin-resistant Staphylococcus aureus isolates during a 55-passage study. Antimicrob Agents Chemother. 2011; 55(3):1177-81).

[8] = tested on: S. aureus; test: Screening of compounds for growth inhibition of S. aureus at 16 μg/mL (OD600); format: cell-based; conditions: compound at 16 μg/mL, 24 hours, compared to DMSO control
Method: Library compounds and analogs of F6 were dissolved in DMSO at 10 mg/mL. S. aureus was cultured in Mueller Hinton Broth to early exponential phase at which point culture aliquots were incubated with compounds at 16 μg/mL or DMSO in duplicates. The culture was continued at 37° C. for 24 hours. Aliquots (100 μL) of the cultures were dispensed into clear 96 well microtiter plates and OD600 was recorded. Percent normalized OD600 was obtained by using the equation [formula] wherein for a given compound, X is the OD600 of culture with the compound, Xo is that of media only and XT is the OD600 of the DMSO control.

[9] = tested on: MRSA NRS384 (USA300); test: MIC and MBC; format: cell-based; conditions: Staphylococcus aureus, MRSA NRS384 (USA300)
Method: as §1

[10] = tested on: MRSA NRS385 (USA500); test: MIC and MBC; format: cell-based; conditions: Staphylococcus aureus, MRSA NRS385 (USA500)
Method: as §1

[11] = tested on: MRSA NRS386 (USA700); test: MIC and MBC; format: cell-based; conditions: Staphylococcus aureus, MRSA NRS386 (USA700)
Method: as §1

[12] = tested on: E. faecium ATCC; test: MIC and MBC; format: cell-based; conditions: Enterococcus faecium, E. faecium ATCC
Method: as §1

[13] = tested on: MRSA NRS123 (USA400); test: MIC and MBC; format: cell-based; conditions: Staphylococcus aureus, MRSA NRS123 (USA400)
Method: as §1

[14] = tested on: MRSA NRS387 (USA800); test: MIC and MBC; format: cell-based; conditions: Staphylococcus aureus, MRSA NRS387 (USA800)
Method: as §1

[15] = tested on: VISA NRS1; test: MIC and MBC; format: cell-based, S. aureus; conditions: Staphylococcus aureus, VISA NRS1
Method: as §1

[16] = tested on: VRSA VRS12; test: MIC and MBC; format: cell-based, S. aureus; conditions: Staphylococcus aureus, VRSA VRS12
Method: as §1

[17] = tested on: MRSA USA300; test: Time-kill analysis; format: cell-based, Staphylococcus aureus
Method: The time-kill analysis was performed as previously described^29. […] Aliquots (100 μL) were collected from each treatment after 0, 2, 4, 8, 12, and 24 hours of incubation at 37° C. and subsequently serially diluted in phosphate-buffered saline (PBS). Bacteria were then transferred to TSA plates and incubated at 37° C. for 18-20 hours before viable CFU/mL was determined.

[18] = tested on: Klebsiella pneumoniae BAA-1706; test: MIC against Gram-negative pathogens; format: cell-based
Method: as §1

[19] = tested on: Pseudomonas aeruginosa ATCC 15442; test: MIC against Gram-negative pathogens; format: cell-based
Method: as §1

[20] = tested on: Acinetobacter baumannii ATCC 19606; test: MIC against Gram-negative pathogens; format: cell-based
Method: as §1

[21] = tested on: Escherichia coli BW25113; test: MIC against Gram-negative pathogens; format: cell-based; conditions: Escherichia coli BW25113 (wild-type); read-out: MIC
Method: as §1

[22] = tested on: Escherichia coli JW5503-1 (ΔtolC); test: MIC against Gram-negative pathogens (efflux pump knockout); format: cell-based
Method: as §1

CC1CC(C)CN(S(=O)(=O)c2ccc(C(=O)Nc3nnc(-c4cccs4)o3)cc2)C1 (stereo not shown) [Compound F6]
MBC ([1]; read-out: MBC): > 128 µg/mL | MIC ([1]; read-out: MIC): 2 µg/mL (≈ 4.48 µM) | MIC [2]: 4 µg/mL (≈ 8.96 µM) | MIC [3]: 2 µg/mL (≈ 4.48 µM) | MIC [4]: 2 µg/mL (≈ 4.48 µM) | MIC [5]: 4 µg/mL (≈ 8.96 µM) | MIC [6]: 4 µg/mL (≈ 8.96 µM) | increase in MIC after the tenth passage ([7]; MRSA USA400): one-fold increase | increase in MIC by the 14th passage from the original MIC ([7]; MRSA USA400): no additional increase in MIC | change in MIC over nine passages ([7]; MRSA USA400, passages 1-9): remained unchanged | inhibition of growth of S. aureus [8]: significantly inhibited the growth | MBC ([9]; read-out: MBC): > 128 µg/mL | MIC ([9]; read-out: MIC): 2 µg/mL (≈ 4.48 µM) | MBC ([10]; read-out: MBC): > 128 µg/mL | MIC ([10]; read-out: MIC): 2 µg/mL (≈ 4.48 µM) | MBC ([11]; read-out: MBC): > 128 µg/mL | MIC ([11]; read-out: MIC): 2 µg/mL (≈ 4.48 µM) | MBC ([12]; read-out: MBC): 128 µg/mL (≈ 287 µM) | MIC ([12]; read-out: MIC): 2 µg/mL (≈ 4.48 µM) | MBC ([13]; read-out: MBC): > 128 µg/mL | MIC ([13]; read-out: MIC): 2 µg/mL (≈ 4.48 µM) | MBC ([14]; read-out: MBC): > 128 µg/mL | MIC ([14]; read-out: MIC): 2 µg/mL (≈ 4.48 µM) | MBC ([15]; read-out: MBC): > 128 µg/mL | MIC ([15]; read-out: MIC): 2 µg/mL (≈ 4.48 µM) | MBC ([16]; read-out: MBC): > 128 µg/mL | MIC ([16]; read-out: MIC): 2 µg/mL (≈ 4.48 µM) | reduction in MRSA USA300 (time-kill) ([17]; 3×MIC, after a 24-hour incubation period): 2.42 log10 | in vitro effect against MRSA USA300 ([17]; time-kill analysis and MBC): bacteriostatic | MIC [18]: not active | MIC ([18]; BAA1706, read-out: MIC): > 128 µg/mL | MIC [19]: not active | MIC ([19]; ATCC15442, read-out: MIC): > 128 µg/mL | MIC [20]: not active | MIC ([20]; ATCC19606, read-out: MIC): 128 µg/mL (≈ 287 µM) | MIC [21]: > 128 µg/mL | MIC [22]: 2 µg/mL (≈ 4.48 µM)
